# Data from PubChem BioAssay (NCI).
#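 Exposure lasted 48 hours, with cells grown in 96-well plates and compounds tested at five concentrations. TGI is the concentration that stops growth completely.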
# Experiments:
# Assay in all cases: DTP human tumour cell line panel, 48 h
# CAKI-1 renal = test system: CAKI-1 renal
# T-47D breast = test system: T-47D breast
# SK-MEL-2 melanoma = test system: SK-MEL-2 melanoma
# UACC-257 melanoma = test system: UACC-257 melanoma
# CCRF-CEM leukemia = test system: CCRF-CEM leukemia
# NCI-H23 lung = test system: NCI-H23 lung
# MALME-3M melanoma = test system: MALME-3M melanoma
# HCC-2998 colon = test system: HCC-2998 colon
# LOX IMVI melanoma = test system: LOX IMVI melanoma
# BT-549 breast = test system: BT-549 breast
# SNB-19 CNS = test system: SNB-19 CNS
# HOP-62 NSCLC = test system: HOP-62 NSCLC
# MDA-MB-435 = test system: MDA-MB-435
# OVCAR-8 ovarian = test system: OVCAR-8 ovarian
# NCI-H226 lung = test system: NCI-H226 lung
# SR leukemia = test system: SR leukemia
# SW-620 colon = test system: SW-620 colon
# MDA-N = test system: MDA-N
# IGROV1 ovarian = test system: IGROV1 ovarian
# SK-MEL-28 melanoma = test system: SK-MEL-28 melanoma
# NCI/ADR-RES ovarian = test system: NCI/ADR-RES ovarian
# MCF7 breast = test system: MCF7 breast
# K-562 leukemia = test system: K-562 leukemia
# HT29 colon = test system: HT29 colon
# M14 melanoma = test system: M14 melanoma
# NCI-H522 lung = test system: NCI-H522 lung
# SF-295 CNS = test system: SF-295 CNS
# UO-31 renal = test system: UO-31 renal
# OVCAR-5 ovarian = test system: OVCAR-5 ovarian
# OVCAR-4 ovarian = test system: OVCAR-4 ovarian
# HCT-15 colon = test system: HCT-15 colon
# A498 renal = test system: A498 renal
# SN12C renal = test system: SN12C renal
# 786-0 renal = test system: 786-0 renal
# U251 CNS = test system: U251 CNS
# COLO 205 colon = test system: COLO 205 colon
# EKVX NSCLC = test system: EKVX NSCLC
# TK-10 renal = test system: TK-10 renal
# RXF 393 renal = test system: RXF 393 renal
# DU-145 prostate = test system: DU-145 prostate
# NCI-H460 lung = test system: NCI-H460 lung
# HOP-92 NSCLC = test system: HOP-92 NSCLC
# MDA-MB-231 breast = test system: MDA-MB-231 breast
# MOLT-4 leukemia = test system: MOLT-4 leukemia
# UACC-62 melanoma = test system: UACC-62 melanoma
# ACHN renal = test system: ACHN renal
# SF-268 CNS = test system: SF-268 CNS
# A549 NSCLC = test system: A549 NSCLC
# SF-539 CNS = test system: SF-539 CNS
# OVCAR-3 ovarian = test system: OVCAR-3 ovarian
# SNB-75 CNS = test system: SNB-75 CNS
# KM12 colon = test system: KM12 colon
# HCT-116 colon = test system: HCT-116 colon
# PC-3 prostate = test system: PC-3 prostate
# SK-OV-3 ovarian = test system: SK-OV-3 ovarian
# SK-MEL-5 melanoma = test system: SK-MEL-5 melanoma
# RPMI-8226 leukemia = test system: RPMI-8226 leukemia
# HL-60(TB) leukemia = test system: HL-60(TB) leukemia
# HS 578T breast = test system: HS 578T breast
structure (smiles),measurement,setting,value
CC(C)(C)C1CCC2c3c([nH]c4ccccc34)C3C(=O)N(c4cccc([N+](=O)[O-])c4)C(=O)C3C2C1 (centres undefined),TGI,CAKI-1 renal,54.2 µM
same,TGI,T-47D breast,> 100 µM
same,TGI,SK-MEL-2 melanoma,64.1 µM
same,TGI,UACC-257 melanoma,61.6 µM
same,TGI,CCRF-CEM leukemia,> 100 µM
same,TGI,NCI-H23 lung,> 100 µM
same,TGI,MALME-3M melanoma,59.7 µM
same,TGI,HCC-2998 colon,63.4 µM
same,TGI,LOX IMVI melanoma,49.8 µM
same,TGI,BT-549 breast,40 µM
same,TGI,SNB-19 CNS,> 100 µM
same,TGI,HOP-62 NSCLC,99.4 µM
same,TGI,MDA-MB-435,81.5 µM
same,TGI,OVCAR-8 ovarian,> 100 µM
same,TGI,NCI-H226 lung,53.1 µM
same,TGI,SR leukemia,> 100 µM
same,TGI,SW-620 colon,> 100 µM
same,TGI,MDA-N,45.7 µM
same,TGI,IGROV1 ovarian,> 100 µM
same,TGI,SK-MEL-28 melanoma,> 100 µM
same,TGI,NCI/ADR-RES ovarian,74.2 µM
same,TGI,MCF7 breast,> 100 µM
same,TGI,K-562 leukemia,> 100 µM
same,TGI,HT29 colon,> 100 µM
same,TGI,M14 melanoma,> 100 µM
same,TGI,NCI-H522 lung,48.8 µM
same,TGI,SF-295 CNS,> 100 µM
same,TGI,UO-31 renal,> 100 µM
same,TGI,OVCAR-5 ovarian,> 100 µM
same,TGI,OVCAR-4 ovarian,> 100 µM
same,TGI,HCT-15 colon,> 100 µM
same,TGI,A498 renal,> 100 µM
same,TGI,SN12C renal,25.5 µM
same,TGI,786-0 renal,43.7 µM
same,TGI,U251 CNS,> 100 µM
same,TGI,COLO 205 colon,73.6 µM
same,TGI,EKVX NSCLC,66.8 µM
same,TGI,TK-10 renal,> 100 µM
same,TGI,RXF 393 renal,> 100 µM
same,TGI,DU-145 prostate,> 100 µM
same,TGI,NCI-H460 lung,> 100 µM
same,TGI,HOP-92 NSCLC,> 100 µM
same,TGI,MDA-MB-231 breast,92.3 µM
same,TGI,MOLT-4 leukemia,> 100 µM
same,TGI,UACC-62 melanoma,> 100 µM
same,TGI,ACHN renal,> 100 µM
same,TGI,SF-268 CNS,77.6 µM
same,TGI,A549 NSCLC,> 100 µM
same,TGI,SF-539 CNS,> 100 µM
same,TGI,OVCAR-3 ovarian,> 100 µM
same,TGI,SNB-75 CNS,> 100 µM
same,TGI,KM12 colon,25.3 µM
same,TGI,HCT-116 colon,40.4 µM
same,TGI,PC-3 prostate,> 100 µM
same,TGI,SK-OV-3 ovarian,> 100 µM
COc1cc(/C=C2\C(=O)N(c3cc(Cl)ccc3Cl)C(c3ccccc3)S2(=O)=O)cc(OC)c1OC (centres undefined),TGI,CAKI-1 renal,> 100 µM
same,TGI,T-47D breast,> 100 µM
same,TGI,SK-MEL-2 melanoma,> 100 µM
same,TGI,UACC-257 melanoma,> 100 µM
same,TGI,CCRF-CEM leukemia,> 100 µM
same,TGI,NCI-H23 lung,> 100 µM
same,TGI,MALME-3M melanoma,> 100 µM
same,TGI,HCC-2998 colon,> 100 µM
same,TGI,LOX IMVI melanoma,> 100 µM
same,TGI,SK-MEL-5 melanoma,> 100 µM
same,TGI,BT-549 breast,> 100 µM
same,TGI,SNB-19 CNS,> 100 µM
same,TGI,HOP-62 NSCLC,> 100 µM
same,TGI,MDA-MB-435,96.2 µM
same,TGI,OVCAR-8 ovarian,> 100 µM
same,TGI,NCI-H226 lung,> 100 µM
same,TGI,RPMI-8226 leukemia,> 100 µM
same,TGI,SR leukemia,> 100 µM
same,TGI,SW-620 colon,> 100 µM
same,TGI,MDA-N,66.1 µM
same,TGI,IGROV1 ovarian,> 100 µM
same,TGI,SK-MEL-28 melanoma,> 100 µM
same,TGI,NCI/ADR-RES ovarian,> 100 µM
same,TGI,MCF7 breast,> 100 µM
same,TGI,K-562 leukemia,> 100 µM
same,TGI,HT29 colon,> 100 µM
same,TGI,M14 melanoma,> 100 µM
same,TGI,NCI-H522 lung,> 100 µM
same,TGI,SF-295 CNS,> 100 µM
same,TGI,UO-31 renal,> 100 µM
same,TGI,OVCAR-5 ovarian,> 100 µM
same,TGI,OVCAR-4 ovarian,> 100 µM
same,TGI,HCT-15 colon,> 100 µM
same,TGI,A498 renal,> 100 µM
same,TGI,SN12C renal,> 100 µM
same,TGI,786-0 renal,> 100 µM
same,TGI,U251 CNS,> 100 µM
same,TGI,COLO 205 colon,> 100 µM
same,TGI,EKVX NSCLC,> 100 µM
same,TGI,TK-10 renal,> 100 µM
same,TGI,RXF 393 renal,> 100 µM
same,TGI,DU-145 prostate,> 100 µM
same,TGI,NCI-H460 lung,> 100 µM
same,TGI,HL-60(TB) leukemia,51.7 µM
same,TGI,HOP-92 NSCLC,> 100 µM
same,TGI,MDA-MB-231 breast,> 100 µM
same,TGI,MOLT-4 leukemia,99.4 µM
same,TGI,UACC-62 melanoma,> 100 µM
same,TGI,ACHN renal,> 100 µM
same,TGI,A549 NSCLC,> 100 µM
same,TGI,SF-539 CNS,> 100 µM
same,TGI,OVCAR-3 ovarian,> 100 µM
same,TGI,SNB-75 CNS,> 100 µM
same,TGI,KM12 colon,> 100 µM
same,TGI,HCT-116 colon,> 100 µM
same,TGI,PC-3 prostate,> 100 µM
same,TGI,SK-OV-3 ovarian,> 100 µM
CN1CCN([C@H]2C[C@H]3[C@@H]4CC=C5C[C@@H](N6CCCC6)CC[C@]5(C)[C@H]4CC[C@]3(C)[C@H]2O)CC1,TGI,T-47D breast,> 100 µM
same,TGI,SK-MEL-2 melanoma,> 100 µM
same,TGI,UACC-257 melanoma,48.3 µM
same,TGI,CCRF-CEM leukemia,> 100 µM
same,TGI,NCI-H23 lung,> 100 µM
same,TGI,MALME-3M melanoma,35.8 µM
same,TGI,HCC-2998 colon,97.8 µM
same,TGI,LOX IMVI melanoma,39.1 µM
same,TGI,SK-MEL-5 melanoma,39.9 µM
same,TGI,BT-549 breast,> 100 µM
same,TGI,SNB-19 CNS,> 100 µM
same,TGI,HOP-62 NSCLC,> 100 µM
same,TGI,MDA-MB-435,> 100 µM
same,TGI,OVCAR-8 ovarian,> 100 µM
same,TGI,NCI-H226 lung,> 100 µM
same,TGI,RPMI-8226 leukemia,53.6 µM
same,TGI,SR leukemia,16.4 µM
same,TGI,SW-620 colon,> 100 µM
same,TGI,MDA-N,55 µM
same,TGI,IGROV1 ovarian,> 100 µM
same,TGI,SK-MEL-28 melanoma,55.8 µM
same,TGI,NCI/ADR-RES ovarian,> 100 µM
same,TGI,MCF7 breast,> 100 µM
same,TGI,K-562 leukemia,34.2 µM
same,TGI,HT29 colon,> 100 µM
same,TGI,M14 melanoma,29.8 µM
same,TGI,NCI-H522 lung,> 100 µM
same,TGI,SF-295 CNS,> 100 µM
same,TGI,UO-31 renal,> 100 µM
same,TGI,OVCAR-5 ovarian,> 100 µM
same,TGI,OVCAR-4 ovarian,> 100 µM
same,TGI,HCT-15 colon,> 100 µM
same,TGI,A498 renal,> 100 µM
same,TGI,SN12C renal,> 100 µM
same,TGI,786-0 renal,> 100 µM
same,TGI,U251 CNS,> 100 µM
same,TGI,COLO 205 colon,> 100 µM
same,TGI,EKVX NSCLC,> 100 µM
same,TGI,TK-10 renal,> 100 µM
same,TGI,RXF 393 renal,42.8 µM
same,TGI,NCI-H460 lung,> 100 µM
same,TGI,HL-60(TB) leukemia,47.9 µM
same,TGI,HOP-92 NSCLC,> 100 µM
same,TGI,MDA-MB-231 breast,> 100 µM
same,TGI,MOLT-4 leukemia,> 100 µM
same,TGI,UACC-62 melanoma,> 100 µM
same,TGI,ACHN renal,> 100 µM
same,TGI,SF-268 CNS,> 100 µM
same,TGI,A549 NSCLC,> 100 µM
same,TGI,SF-539 CNS,30.6 µM
same,TGI,OVCAR-3 ovarian,> 100 µM
same,TGI,SNB-75 CNS,> 100 µM
same,TGI,KM12 colon,> 100 µM
same,TGI,HS 578T breast,> 100 µM
same,TGI,HCT-116 colon,> 100 µM
same,TGI,PC-3 prostate,> 100 µM
same,TGI,SK-OV-3 ovarian,> 100 µM
